US12371426B2, “Pyridazine derivatives as SMARCA2/4 degraders” (Aurigene Discovery Technologies Limited, priority 2018, dated 2025)

What was measured:
[1] = target: T1, SMARCA2 (Homo sapiens, UniProt P51531); experiment: SMARCA2 degradation in H929 cells by Western blot; type: cell-based; design: endogenous in cells; details: 16 hours
Description: (§1) Determination of SMARCA2 and SMARCA4 Degradation in H929 Cells by Western Blot:
(§2) NCI-H929 (ATCC CRL-9068) was plated in 6 well plates using complete RPMI-1640 media. Next day, compounds of present invention were added to cells from 10 mM stocks made in DMSO (Sigma Cat no. D2650). Each concentration of compound was tested with DMSO not exceeding final percentage of 0.3 in the cells. Cells were incubated with the compound for 16 hours followed by harvesting with 1× RIPA lysis buffer (Thermo Fischer, catalogue number #89900) containing protease inhibitor cocktail (Sigma catalogue number #P-8340). Equal amount of protein was loaded on SDS PAGE gel for electrophoresis. Western blot was carried out for detection of either SMARCA2 (Cell signaling technologies, catalogue number #11966) or SMARCA4 antibody (Cell signaling technologies, catalogue number #49360). Beta Actin (Santa Cruz, catalogue number #69879) was used as loading control. Percentage of SMARCA2 or SMARCA4 degradation was calculated using formula % Degradation=100−(normalized band intensity in treated sample/normalized band intensity in DMSO sample)*100.
(§3) Selected compounds of the present invention were screened in the above mentioned assay procedures for determination of % SMARCA2 and SMARCA4 degradation 100 nM and the results are summarized in below table 30.

[2] = tested on: NCI-H838 cells; experiment: Anti proliferative activity in NCI-H838 cell line by Cell Titer Glo assay; type: cell-based; details: Homo sapiens, 192 h, 8 days compound incubation, CellTiter Glo, read-out: Anti-proliferative activity IC50 group (NCI-H838 cells)
Description: Determination of Anti Proliferative Activity of Compounds in NCI-H929 and NCI-H838 Cell Lines by Cell Titer Glo® (promega) assay:
NCI-H929 (ATCC CRL-9068) or NCI-H838 (ATCC CRL-5844) cells were seeded in 96 well plate flat black clear bottom plates (Corning, Cat. No 3904) using complete RPMI-1640 media. Next day, compounds listed in the present invention were added to cells from 10 mM stocks made in DMSO (Sigma Cat no. D2650). Each concentration of compound was tested in triplicate with DMSO concentration at a final percentage not exceeding 0.3 in the cells. After the compound incubation (3 days for H929 and 8 days for H838) assay was terminated using 50 μl of CellTiter Glo® reagent (Promega, Cat. no G7572). CellTiter Glo® Luminescent reagent determines the number of viable cells based on quantitation of ATP present which is an indicator of cell number and metabolic activity. Luminescence readings were taken in Victor-3 instrument. Percent inhibition of proliferation was calculated using formula, % inhibition=100−(luminescence value of test/luminescence value of DMSO control)*100. DMSO control (0%)=Cells in complete media with DMSO; blank=Media alone containing DMSO. IC50 was calculated using graph pad prism software.
Herein group “A” refers to IC50 value lower than 1 μM, “B” refers to IC50 value between 1-10 μM (both inclusive) and “C” refers to IC50 value higher than 10 μM or less than 50% activity at 10 μM.

[3] = target: T1, SMARCA2; experiment: SMARCA2 degradation in NCI-H838 cells by Western blot; type: cell-based; design: endogenous in cells; host or cells: NCI-H838 (ATCC CRL-5844); details: 16 hours
Description: Determination of SMARCA2 Degradation in NCI-1H838 Cells by Western Blot:
NCI-1H838 (ATCC CRL-5844) was plated in 6 well plates using complete RPMI-1640 media. Next day, compounds of present invention were added to cells from 10 mM stocks made in DMSO (Sigma Cat no. D2650). Each concentration of compound was tested with DMSO concentration not exceeding a final percentage of 0.3 in the cells. Cells were incubated with the compound for 16 hours followed by harvesting with 1× RIPA lysis buffer (Thermo Fischer, catalogue number #89900) containing protease inhibitor cocktail (Sigma catalogue number #P-8340). Equal amount of protein was loaded on SIDS PAGE gel for electrophoresis. Western blot was carried out for detection of SMARCA2 with antibody (Cell signaling technologies, catalogue number #11966). Beta Actin (Santa Cruz, catalogue number #69879) was used as loading control. Percentage of SMARCA2 degradation was calculated using formula % degradation=100−(normalized band intensity in treated sample/normalized band intensity in DMSO sample)*100”.
Selected compounds of the present invention were screened in the above mentioned assay procedures for determination of % SMARCA2 degradation at 100 nM and the results are summarized in below table 31.

[4] = tested on: NCI-H929 cells; experiment: Anti proliferative activity in NCI-H929 cell line by Cell Titer Glo assay; type: cell-based; details: Homo sapiens, 72 h, 3 days compound incubation, CellTiter Glo, read-out: Anti-proliferative activity IC50 group (NCI-H929 cells)
Procedure, shortened: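 Cells seeded in complete RPMI-1640 and exposed next day to compounds in triplicate (DMSO ≤0.3% final) for 3 days (H929) or 8 days (H838). Viability by CellTiter-Glo ATP luminescence; % inhibition relative to DMSO control, IC50 from dose-response fit.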

[5] = target: T2, SMARCA4 (Homo sapiens, UniProt P51532); experiment: SMARCA4 degradation in H929 cells by Western blot; type: cell-based; details: 16 hours; for SMARCA4 percent degradation at 0.1 µM: NCI-H929, 100 nM
T2 construct: endogenous in cells; host or cells: NCI-H929 (ATCC CRL-9068)
Description: as §1, §2, §3

[6] = tested on: SMARCA4-deficient cancer cell lines; details: SMARCA2/4 bromodomain inhibitor; Cancer Res. 2015; cited from earlier work

T1 sequence (P51531 whole entry): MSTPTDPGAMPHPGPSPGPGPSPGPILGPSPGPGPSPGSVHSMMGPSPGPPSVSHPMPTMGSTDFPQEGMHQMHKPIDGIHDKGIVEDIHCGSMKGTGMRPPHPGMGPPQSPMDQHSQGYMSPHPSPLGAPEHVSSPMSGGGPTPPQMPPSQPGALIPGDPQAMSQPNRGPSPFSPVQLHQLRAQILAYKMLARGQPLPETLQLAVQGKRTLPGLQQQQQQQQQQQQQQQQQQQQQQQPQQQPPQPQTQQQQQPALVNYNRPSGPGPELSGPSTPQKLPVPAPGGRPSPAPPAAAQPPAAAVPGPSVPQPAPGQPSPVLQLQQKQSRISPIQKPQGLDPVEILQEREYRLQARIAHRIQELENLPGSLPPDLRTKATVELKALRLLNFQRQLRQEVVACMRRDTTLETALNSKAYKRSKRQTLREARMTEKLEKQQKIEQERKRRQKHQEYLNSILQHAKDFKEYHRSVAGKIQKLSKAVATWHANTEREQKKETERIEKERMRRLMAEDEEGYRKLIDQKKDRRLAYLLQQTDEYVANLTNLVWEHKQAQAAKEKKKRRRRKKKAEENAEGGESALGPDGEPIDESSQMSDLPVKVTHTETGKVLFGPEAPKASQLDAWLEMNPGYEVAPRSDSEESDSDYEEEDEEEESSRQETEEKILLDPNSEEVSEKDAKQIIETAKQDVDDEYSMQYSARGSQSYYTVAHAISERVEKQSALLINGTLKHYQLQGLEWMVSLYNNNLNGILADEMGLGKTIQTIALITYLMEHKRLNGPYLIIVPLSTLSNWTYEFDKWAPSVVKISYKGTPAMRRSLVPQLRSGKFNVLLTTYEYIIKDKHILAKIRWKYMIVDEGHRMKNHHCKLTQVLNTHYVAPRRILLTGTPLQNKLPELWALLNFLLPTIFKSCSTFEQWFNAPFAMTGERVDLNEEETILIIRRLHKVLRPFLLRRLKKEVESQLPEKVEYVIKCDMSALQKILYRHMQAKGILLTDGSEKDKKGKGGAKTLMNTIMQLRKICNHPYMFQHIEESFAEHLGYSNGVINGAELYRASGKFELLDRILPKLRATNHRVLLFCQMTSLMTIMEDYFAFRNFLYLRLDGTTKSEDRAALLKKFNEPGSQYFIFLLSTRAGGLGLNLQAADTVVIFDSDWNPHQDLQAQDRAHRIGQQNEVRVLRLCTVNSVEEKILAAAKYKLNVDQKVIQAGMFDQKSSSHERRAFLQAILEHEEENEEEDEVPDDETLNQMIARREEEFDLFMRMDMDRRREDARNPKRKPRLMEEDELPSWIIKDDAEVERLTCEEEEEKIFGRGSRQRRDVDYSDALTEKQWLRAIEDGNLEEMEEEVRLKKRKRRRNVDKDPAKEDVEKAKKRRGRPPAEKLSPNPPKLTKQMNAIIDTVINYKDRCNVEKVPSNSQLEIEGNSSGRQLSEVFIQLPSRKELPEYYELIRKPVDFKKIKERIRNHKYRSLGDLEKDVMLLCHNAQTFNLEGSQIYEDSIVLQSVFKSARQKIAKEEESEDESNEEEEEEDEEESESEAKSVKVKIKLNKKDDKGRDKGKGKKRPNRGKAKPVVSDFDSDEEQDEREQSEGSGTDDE
T2 sequence (P51532 whole entry): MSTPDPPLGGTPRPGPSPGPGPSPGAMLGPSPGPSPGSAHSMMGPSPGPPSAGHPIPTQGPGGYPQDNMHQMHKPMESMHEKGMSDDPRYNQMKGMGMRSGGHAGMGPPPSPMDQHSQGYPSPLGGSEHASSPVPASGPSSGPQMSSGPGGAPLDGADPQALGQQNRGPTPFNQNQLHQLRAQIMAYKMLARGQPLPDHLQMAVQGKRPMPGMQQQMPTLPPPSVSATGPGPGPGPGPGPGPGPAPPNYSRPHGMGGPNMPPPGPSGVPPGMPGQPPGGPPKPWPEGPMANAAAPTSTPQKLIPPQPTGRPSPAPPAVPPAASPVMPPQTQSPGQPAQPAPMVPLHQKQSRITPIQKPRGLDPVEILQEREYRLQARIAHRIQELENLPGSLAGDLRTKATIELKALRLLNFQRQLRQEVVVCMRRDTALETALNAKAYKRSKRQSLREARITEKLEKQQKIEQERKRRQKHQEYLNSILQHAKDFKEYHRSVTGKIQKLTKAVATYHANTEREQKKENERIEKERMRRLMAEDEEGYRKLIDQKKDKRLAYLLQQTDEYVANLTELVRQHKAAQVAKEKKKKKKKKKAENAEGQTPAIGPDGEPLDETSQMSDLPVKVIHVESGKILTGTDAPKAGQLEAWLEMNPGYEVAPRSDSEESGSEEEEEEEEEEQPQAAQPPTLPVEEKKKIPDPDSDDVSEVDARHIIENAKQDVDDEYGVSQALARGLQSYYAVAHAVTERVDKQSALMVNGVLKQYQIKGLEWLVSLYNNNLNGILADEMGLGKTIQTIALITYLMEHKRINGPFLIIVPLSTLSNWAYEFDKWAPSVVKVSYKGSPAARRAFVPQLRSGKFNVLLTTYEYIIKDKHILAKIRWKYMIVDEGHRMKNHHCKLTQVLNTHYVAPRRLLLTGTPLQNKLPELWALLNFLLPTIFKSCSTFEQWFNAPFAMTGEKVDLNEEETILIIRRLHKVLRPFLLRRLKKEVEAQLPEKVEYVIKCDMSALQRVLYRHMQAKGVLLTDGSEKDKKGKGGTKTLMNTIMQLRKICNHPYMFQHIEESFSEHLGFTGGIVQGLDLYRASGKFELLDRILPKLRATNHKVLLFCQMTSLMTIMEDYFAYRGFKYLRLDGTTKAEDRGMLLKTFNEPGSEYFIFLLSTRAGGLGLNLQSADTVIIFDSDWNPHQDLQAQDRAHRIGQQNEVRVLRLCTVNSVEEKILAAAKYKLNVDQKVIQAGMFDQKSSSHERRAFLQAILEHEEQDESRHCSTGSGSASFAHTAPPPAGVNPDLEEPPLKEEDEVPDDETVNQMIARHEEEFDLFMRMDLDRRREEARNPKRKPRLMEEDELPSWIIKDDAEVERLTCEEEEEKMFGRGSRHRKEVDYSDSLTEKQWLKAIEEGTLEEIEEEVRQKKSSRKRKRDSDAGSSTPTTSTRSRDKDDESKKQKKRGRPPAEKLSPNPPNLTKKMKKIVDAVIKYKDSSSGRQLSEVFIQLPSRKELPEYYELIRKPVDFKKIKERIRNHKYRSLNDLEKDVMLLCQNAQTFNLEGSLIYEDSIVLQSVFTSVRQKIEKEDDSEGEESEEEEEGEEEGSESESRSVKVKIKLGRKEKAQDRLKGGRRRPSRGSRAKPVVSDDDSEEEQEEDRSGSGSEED

Structure (SMILES) | SMARCA2 Percent degradation @ 100 nM [1] [%] | IC50 [2] [nM] | SMARCA2 @ 100 nM (% SMARCA2 degradation) [3] [%] | IC50 [4] [nM] | SMARCA4 Percent degradation @ 100 nM [5] [%] | SMARCA4 percent degradation at 0.1 µM [5] [%] | antiproliferative phenotype [6]
O=C(/C=C/N1C[C@H]2C[C@@H]1CN2c1ccccn1)c1ccccc1O [PFI-3] | – | – | – | – | – | – | fails to display an antiproliferative phenotype
Cc1ncsc1-c1ccc([C@H](C)NC(=O)[C@@H]2C[C@@H](O)CN2C(=O)[C@@H](NC(=O)CN2CCN(c3cc(-c4c(O)ccc(F)c4F)nnc3N)CC2)C(C)(C)C)cc1 [Compound 96] | – | < 1000 | 76 | – | – | – | –
Cc1ncsc1-c1ccc([C@H](C)NC(=O)[C@@H]2C[C@@H](O)CN2C(=O)[C@@H](NC(=O)C(C)N2CCN(c3cc(-c4ccccc4O)nnc3N)CC2)C(C)(C)C)cc1 (single isomer, unassigned) [Compound 58] | 100 | < 1000 | 71 | – | – | 100 | –
Cc1cccc(-c2cc(N3CCN(CC(=O)N[C@H](C(=O)N4C[C@H](O)C[C@H]4C(=O)N[C@@H](C)c4ccc(-c5scnc5C)cc4)C(C)(C)C)CC3)c(N)nn2)c1O [Compound 91] | – | < 1000 | 82 | – | – | – | –
Cc1ncsc1-c1ccc([C@H](C)NC(=O)[C@@H]2C[C@@H](O)CN2C(=O)[C@@H](NC(=O)CN2C3CCC2CN(c2cc(-c4ccccc4O)nnc2N)C3)C(C)(C)C)cc1 [Compound 61, (2S,4R)-1-((2S)-2-(2-(3-(3-amino-6-(2-hydroxyphenyl)pyridazin-4-yl)-3,8-diazabicyclo[3.2.1]octan-8-yl)acetamido)-3,3-dimethylbutanoyl)-4-hydroxy-N—((S)-1-(4-(4-methylthiazol-5-yl)phenyl)ethyl)pyrrolidine-2-carboxamide] | – | < 1000 | 35 | – | – | – | –
Cc1ncsc1-c1ccc([C@H](C)NC(=O)[C@@H]2C[C@@H](O)CN2C(=O)[C@@H](NC(=O)CN2CC=C(c3cc(-c4ccccc4O)nnc3N)CC2)C(C)(C)C)cc1 [Compound 82] | – | < 1000 | 61 | < 1000 | – | – | –
Cc1ncsc1-c1ccc([C@H](C)NC(=O)[C@@H]2C[C@@H](O)CN2C(=O)[C@@H](NC(=O)CN2CCN(c3cc(-c4cccc(F)c4O)nnc3N)CC2)C(C)(C)C)cc1 [Compound 90] | 100 | < 1000 | 85 | < 1000 | – | 101 | –

The next lines start with results.

SMARCA2 Percent degradation @ 100 nM [1] [%] | IC50 [2] [nM] | SMARCA2 @ 100 nM (% SMARCA2 degradation) [3] [%] | IC50 [4] [nM] | SMARCA4 Percent degradation @ 100 nM [5] [%] | SMARCA4 percent degradation at 0.1 µM [5] [%] | Structure (SMILES) | antiproliferative phenotype [6]
100 | < 1000 | 7 | – | – | – | Cc1ncsc1-c1ccc([C@H](C)NC(=O)[C@@H]2C[C@@H](O)CN2C(=O)[C@@H](NC(=O)C(C)C2CCN(c3cc(-c4cccc(F)c4O)nnc3N)CC2)C(C)(C)C)cc1 (single isomer, unassigned) [Compound 83] | –
100 | < 1000 | 97 | < 1000 | 100 | – | Cc1ncsc1-c1ccc([C@H](C)NC(=O)[C@@H]2C[C@@H](O)CN2C(=O)[C@@H](NC(=O)CN2CCN(c3cc(-c4ccccc4O)nnc3N)CC2)C(C)(C)C)cc1 [Compound 43] | –
– | < 1000 | 34 | < 1000 | – | – | Cc1ncsc1-c1ccc([C@H](C)NC(=O)[C@@H]2C[C@@H](O)CN2C(=O)[C@@H](NC(=O)CN2CCC(c3cc(-c4ccccc4O)nnc3N)CC2)C(C)(C)C)cc1 [Compound 81] | –
99 | < 1000 | 75 | < 1000 | – | 100 | Cc1ncsc1-c1ccc([C@H](C)NC(=O)[C@@H]2C[C@@H](O)CN2C(=O)[C@@H](NC(=O)CC2CCN(c3cc(-c4cc(F)ccc4O)nnc3N)CC2)C(C)(C)C)cc1 [Compound 99] | –
– | < 1000 | 64 | – | – | – | Cc1ncsc1-c1ccc([C@H](C)NC(=O)[C@@H]2C[C@@H](O)CN2C(=O)[C@@H](NC(=O)C=C2CCN(c3cc(-c4ccccc4O)nnc3N)CC2)C(C)(C)C)cc1 [Compound 103] | –
– | < 1000 | 94 | – | – | – | Cc1ncsc1-c1ccc([C@H](C)NC(=O)[C@@H]2C[C@@H](O)CN2C(=O)[C@@H](NC(=O)CN2CCN(c3cc(-c4cc(F)ccc4O)nnc3N)CC2)C(C)(C)C)cc1 [Compound 63, (2S,4R)-1-((S)-2-(2-(4-(3-amino-6-(5-fluoro-2-hydroxyphenyl)pyridazin-4-yl)piperazin-1-yl)acetamido)-3,3-dimethylbutanoyl)-4-hydroxy-N—((S)-1-(4-(4-methylthiazol-5-yl)phenyl)ethyl)pyrrolidine-2-carboxamide] | –
– | < 1000 | 99 | < 1000 | – | 99 | Cc1ncsc1-c1ccc([C@H](C)NC(=O)[C@@H]2C[C@@H](O)CN2C(=O)[C@@H](NC(=O)CC2CCN(c3cc(-c4ccccc4O)nnc3N)CC2)C(C)(C)C)cc1 [Compound 51, (2S,4R)-1-((S)-2-(2-(1-(3-amino-6-(2-hydroxyphenyl)pyridazin-4-yl)piperidin-4-yl)acetamido)-3,3-dimethylbutanoyl)-4-hydroxy-N—((S)-1-(4-(4-methylthiazol-5-yl)phenyl)ethyl)pyrrolidine-2-carboxamide] | –
